Test results from ChEMBL document CHEMBL1201862, “PubChem BioAssay data set” (2004).
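Growth conditions: 96-well plates. Treatment: test compound, 48 hours, 5 concentrations. Analysis: linear interpolation between bracketing concentrations; unreached endpoints set to highest concentration. Abbreviation: GI50, concentration required for 50% inhibition of growth.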 Calls of active or inactive are those of the source. Rule as the data show it: active = GI50 up to about 1.1 µM and inactive = higher.

What was measured:
Assay in all cases: NCI anticancer screen, dose series, 48 h
[1] = tested on: M19-MEL
[2] = tested on: RXF 631
[3] = tested on: DMS-114
[4] = tested on: KM-20L2
[5] = tested on: XF498
[6] = tested on: LXFL 529
[7] = tested on: SNB-78
[8] = tested on: DMS-273
[9] = tested on: HOP-18

SMILES: COc1cccc(/C=C\c2cc(OC)c(OC)c(OC)c2)c1
- GI50 [1]: 12.1 µM (inactive)
- GI50 [2]: 0.836 µM (active)
- GI50 [3]: 1.48 µM (inactive)
- GI50 [4]: 0.37 µM (active)
- GI50 [5]: 2.8 µM (inactive)
- GI50 [6]: 2.49 µM (inactive)
- GI50 [7]: 1.24 µM (inactive)
- GI50 [8]: 0.553 µM (active)

SMILES: COc1ccc2nc3cccc(C(=O)NCCN(C)C)c3nc2c1
- GI50 [1]: 1.64 µM (inactive)
- GI50 [2]: 3.17 µM (inactive)
- GI50 [3]: 1.29 µM (inactive)
- GI50 [9]: 3.19 µM (inactive)
- GI50 [4]: 2.2 µM (inactive)
- GI50 [5]: 0.292 µM (active)
- GI50 [6]: 1.26 µM (inactive)
- GI50 [7]: 2.88 µM (inactive)
- GI50 [8]: 1.44 µM (inactive)

SMILES: Nc1ccn(C2OC(COC(=O)C34CC5CC(CC(C5)C3)C4)C(O)C2O)c(=O)n1 (stereo not given)
- GI50 [1]: > 100 µM (inactive)
- GI50 [3]: 12.4 µM (inactive)
- GI50 [9]: > 100 µM (inactive)
- GI50 [4]: > 100 µM (inactive)
- GI50 [7]: > 100 µM (inactive)
- GI50 [8]: > 100 µM (inactive)

SMILES: O=C1C(=O)N(c2ccc(Cl)cc2Cl)C(=O)C(=O)C1c1nc2ccccc2s1
- GI50 [1]: > 100 µM (inactive)
- GI50 [3]: > 72.4 µM (inactive)
- GI50 [9]: > 100 µM (inactive)
- GI50 [4]: > 100 µM (inactive)
- GI50 [5]: > 55 µM (inactive)
- GI50 [6]: 50.6 µM (inactive)
- GI50 [8]: > 100 µM (inactive)

SMILES: N#Cc1nn(-c2ccc(Cl)cc2)c(=N)c2c(N)n3nc(-c4ccccc4)cc3nc12
- GI50 [9]: < 0.01 µM (active)
- GI50 [4]: 1 µM (active)
- GI50 [5]: 41.4 µM (inactive)
- GI50 [6]: 0.705 µM (active)
- GI50 [7]: 1 µM (active)
- GI50 [8]: 1 µM (active)

SMILES: CCOC(=O)NC(=O)c1cn(CCCOC(=O)CCCCCCCCC(=O)OCCCn2cc(C(=O)NC(=O)OCC)c(=O)[nH]c2=O)c(=O)[nH]c1=O
- GI50 [1]: 12.9 µM (inactive)
- GI50 [3]: 6.65 µM (inactive)
- GI50 [9]: 29.1 µM (inactive)
- GI50 [4]: 34.5 µM (inactive)
- GI50 [5]: 20.7 µM (inactive)
- GI50 [6]: 28 µM (inactive)
- GI50 [7]: 8 µM (inactive)
- GI50 [8]: 20.5 µM (inactive)

SMILES: Cc1ccc(S(=O)(=O)OC(COC(=O)c2ccccc2)C(OS(=O)(=O)c2ccc(C)cc2)C(OS(=O)(=O)c2ccc(C)cc2)C(COC(=O)c2ccccc2)OS(=O)(=O)c2ccc(C)cc2)cc1 (stereo not given)
- GI50 [1]: > 100 µM (inactive)
- GI50 [4]: > 100 µM (inactive)
- GI50 [6]: > 100 µM (inactive)
- GI50 [7]: > 100 µM (inactive)
- GI50 [8]: > 100 µM (inactive)

SMILES: CC(C)CCCC(C)[C@H]1CCC2[C@@H]3CCC4Nc5c(cnn5-c5ccccc5)C[C@]4(C)C3CC[C@@]21C (stereo not given in full)
- GI50 [1]: 26.1 µM (inactive)
- GI50 [2]: 13.1 µM (inactive)
- GI50 [3]: 52.8 µM (inactive)
- GI50 [9]: > 100 µM (inactive)
- GI50 [4]: 13.1 µM (inactive)
- GI50 [5]: 15.3 µM (inactive)
- GI50 [6]: 24.3 µM (inactive)
- GI50 [7]: 18.7 µM (inactive)
- GI50 [8]: 2.72 µM (inactive)

SMILES: Cc1cc(C)c(C(=O)/C=C/c2ccccc2)c(C)c1
- GI50 [1]: 28.5 µM (inactive)
- GI50 [3]: 24.1 µM (inactive)
- GI50 [9]: > 100 µM (inactive)
- GI50 [4]: 32.6 µM (inactive)
- GI50 [5]: 12.6 µM (inactive)
- GI50 [6]: 31.6 µM (inactive)

SMILES: CCOC(=O)CCC(NC(=O)c1ccc(/N=C/c2nc3ccccc3nc2-c2ccccc2)cc1)C(=O)OCC (stereo not given)
- GI50 [2]: > 100 µM (inactive)
- GI50 [3]: > 100 µM (inactive)
- GI50 [9]: 35.4 µM (inactive)
- GI50 [4]: > 100 µM (inactive)
- GI50 [5]: > 100 µM (inactive)
- GI50 [6]: > 100 µM (inactive)
- GI50 [7]: > 100 µM (inactive)
- GI50 [8]: > 100 µM (inactive)

SMILES: COC1=CC(=O)NCCN1
- GI50 [1]: > 100 µM (inactive)
- GI50 [2]: > 100 µM (inactive)
- GI50 [3]: > 100 µM (inactive)
- GI50 [9]: > 100 µM (inactive)
- GI50 [4]: > 100 µM (inactive)
- GI50 [5]: > 100 µM (inactive)
- GI50 [6]: > 100 µM (inactive)
- GI50 [7]: > 100 µM (inactive)
- GI50 [8]: 78.7 µM (inactive)

SMILES: CCOCN1COCN/C1=N/C#N
- GI50 [2]: > 100 µM (inactive)
- GI50 [3]: 71.4 µM (inactive)
- GI50 [9]: > 100 µM (inactive)
- GI50 [4]: > 100 µM (inactive)
- GI50 [5]: > 100 µM (inactive)
- GI50 [6]: > 100 µM (inactive)
- GI50 [7]: > 100 µM (inactive)
- GI50 [8]: > 100 µM (inactive)

SMILES: CC(=O)Nc1ccc(-c2nnc(SCC(=O)Nc3cccc(C)c3)o2)cc1
- GI50 [1]: 12.2 µM (inactive)
- GI50 [3]: 2.34 µM (inactive)
- GI50 [9]: 16.1 µM (inactive)
- GI50 [4]: 10.2 µM (inactive)
- GI50 [6]: 10.9 µM (inactive)
- GI50 [7]: 13.7 µM (inactive)
- GI50 [8]: 10.3 µM (inactive)

SMILES: Nc1nc(=O)n(C2CC(O)C(O)C(CO)O2)cc1F (stereo not given)
- GI50 [1]: > 100 µM (inactive)
- GI50 [2]: > 100 µM (inactive)
- GI50 [3]: > 100 µM (inactive)
- GI50 [9]: > 100 µM (inactive)
- GI50 [4]: > 100 µM (inactive)
- GI50 [5]: 61.4 µM (inactive)
- GI50 [6]: > 100 µM (inactive)
- GI50 [7]: > 100 µM (inactive)

SMILES: CN(C)C(=O)/N=c1\ss/c(=N\C(=S)N(C)C)n1-c1ccccc1
- GI50 [1]: 31.9 µM (inactive)
- GI50 [2]: 36.1 µM (inactive)
- GI50 [3]: 10.3 µM (inactive)
- GI50 [9]: > 10 µM (inactive)
- GI50 [4]: 54 µM (inactive)
- GI50 [5]: 43.7 µM (inactive)
- GI50 [6]: 7.55 µM (inactive)
- GI50 [7]: 65.8 µM (inactive)
- GI50 [8]: 0.125 µM (active)

SMILES: c1cc2n(n1)CCN2
- GI50 [1]: 6870 µM (inactive)
- GI50 [3]: 1560 µM (inactive)
- GI50 [9]: 4030 µM (inactive)
- GI50 [4]: 2970 µM (inactive)
- GI50 [5]: 431 µM (inactive)
- GI50 [7]: 4740 µM (inactive)
- GI50 [8]: 262 µM (inactive)

SMILES: O=S1(=O)CCN(c2ccccc2CC(c2c[nH]c3ccccc23)c2c[nH]c3ccccc23)CC1
- GI50 [1]: 5.74 µM (inactive)
- GI50 [3]: 5.3 µM (inactive)
- GI50 [9]: 14.4 µM (inactive)
- GI50 [4]: 8.85 µM (inactive)
- GI50 [6]: 4.13 µM (inactive)
- GI50 [7]: 30.1 µM (inactive)
- GI50 [8]: 8.63 µM (inactive)

SMILES: COc1cc(/C=C2/C(=O)N(C(=O)OC(C)C)C(Cc3cc(OC)c(OC)c(C)c3OC)C(=O)N2Cc2ccccc2)c(OC)c(C)c1OC (stereo not given)
- GI50 [1]: 57 µM (inactive)
- GI50 [3]: 13.6 µM (inactive)
- GI50 [9]: 49.5 µM (inactive)
- GI50 [4]: 24.8 µM (inactive)
- GI50 [6]: 10.4 µM (inactive)
- GI50 [8]: 14 µM (inactive)

SMILES: N#Cc1ccccc1NC(=O)C(=O)C(C(=O)c1ccccc1-c1ccccc1)C1OC(=O)c2ccccc21 (stereo not given)
- GI50 [1]: 14.8 µM (inactive)
- GI50 [3]: 15.5 µM (inactive)
- GI50 [4]: 20.9 µM (inactive)
- GI50 [5]: 16 µM (inactive)
- GI50 [7]: 11.2 µM (inactive)

SMILES: COc1ccc2cc3c4cc(OC)c(OC)cc4ccn3c2c1
- GI50 [1]: > 100 µM (inactive)
- GI50 [3]: > 100 µM (inactive)
- GI50 [9]: > 100 µM (inactive)
- GI50 [5]: > 100 µM (inactive)
- GI50 [6]: > 100 µM (inactive)
- GI50 [7]: > 100 µM (inactive)
- GI50 [8]: > 100 µM (inactive)

SMILES: COC(=O)c1ncc2c(=O)[nH]c3ccccc3c2c1C(=O)OC
- GI50 [1]: > 100 µM (inactive)
- GI50 [2]: > 100 µM (inactive)
- GI50 [3]: > 100 µM (inactive)
- GI50 [9]: > 100 µM (inactive)
- GI50 [4]: > 100 µM (inactive)
- GI50 [5]: > 100 µM (inactive)
- GI50 [6]: > 100 µM (inactive)
- GI50 [7]: > 100 µM (inactive)
- GI50 [8]: > 100 µM (inactive)

SMILES: Cc1ccc(NC(=O)c2cc3cc(/N=N/c4ccc(Br)cc4)ccc3oc2=O)cc1
- GI50 [3]: 37 µM (inactive)
- GI50 [9]: < 0.01 µM (active)
- GI50 [5]: > 100 µM (inactive)
- GI50 [7]: > 100 µM (inactive)
- GI50 [8]: 41.8 µM (inactive)

SMILES: CCC(=O)OC1CCn2c1nc1c2C(=O)C(C)=C(NC(C)=O)C1=O (stereo not given)
- GI50 [1]: 1.76 µM (inactive)
- GI50 [3]: 0.425 µM (active)
- GI50 [6]: 1.41 µM (inactive)
- GI50 [7]: 1.79 µM (inactive)
- GI50 [8]: 1.79 µM (inactive)

SMILES: CC(C)N(C(=O)C12C3C4C5C3C1(C#N)C5C42)C(C)C (stereo not given)
- GI50 [1]: > 100 µM (inactive)
- GI50 [3]: > 100 µM (inactive)
- GI50 [9]: > 100 µM (inactive)
- GI50 [4]: > 100 µM (inactive)
- GI50 [5]: > 100 µM (inactive)
- GI50 [6]: > 100 µM (inactive)
- GI50 [7]: > 100 µM (inactive)
- GI50 [8]: > 100 µM (inactive)

SMILES: CC1(C)OC(=O)[C@@](C)([C@H](O)c2ccccc2)O1
- GI50 [1]: > 100 µM (inactive)
- GI50 [2]: 79.4 µM (inactive)
- GI50 [3]: 56.8 µM (inactive)
- GI50 [4]: > 100 µM (inactive)
- GI50 [5]: > 100 µM (inactive)
- GI50 [6]: > 100 µM (inactive)
- GI50 [7]: > 100 µM (inactive)
- GI50 [8]: > 100 µM (inactive)

SMILES: CCOP1(=O)C=C(C)C(=C(Cl)Cl)C(C)=C1 (stereo not given)
- GI50 [1]: 8.07 µM (inactive)
- GI50 [2]: 5.87 µM (inactive)
- GI50 [9]: 13.8 µM (inactive)
- GI50 [4]: 2.68 µM (inactive)
- GI50 [5]: 0.548 µM (active)
- GI50 [6]: 3.78 µM (inactive)
- GI50 [7]: > 10 µM (inactive)

SMILES: Cc1ccc(OCC(=O)N2N=C(c3ccccc3)CC2(O)c2ccccc2)cc1 (stereo not given)
- GI50 [1]: 44.6 µM (inactive)
- GI50 [2]: 26.9 µM (inactive)
- GI50 [4]: 18 µM (inactive)
- GI50 [5]: > 100 µM (inactive)
- GI50 [6]: 19.3 µM (inactive)
- GI50 [7]: 22.1 µM (inactive)
- GI50 [8]: 20.8 µM (inactive)

SMILES: CCOC(=O)C1S(=O)(=O)OCCOS1(=O)=O
- GI50 [1]: > 100 µM (inactive)
- GI50 [2]: > 100 µM (inactive)
- GI50 [5]: > 100 µM (inactive)
- GI50 [6]: > 100 µM (inactive)
- GI50 [7]: > 100 µM (inactive)
- GI50 [8]: > 100 µM (inactive)
